From patent publication US6635641B2 (Agouron Pharmaceuticals, Inc., priority 2000, dated 2003)
Structures can show the parent of a compound that is named as a salt. Where two headings read alike, the source gives them in different places.

Assays:
[1] = system: lung cancer cells (line MV522); experiment: Cancer cell proliferation (MV522) assay (MTT); assay type: cell-based
Description: The protocol for assessing cellular proliferation in cancer cells is similar to that used for assessments in HUVEC cells. Two thousand lung cancer cells (line MV522, acquired from American Tissue Cultural Collection) were seeded in growth media (RPMI1640 medium supplemented with 2 mM glutamine and 10% FBS). Cells are allowed to attach for 1 day prior to addition of test agents and/or vehicles. Cells are treated simultaneously with the same test agents used in the HUVEC assay. Cellular proliferation is quantified by MTT dye reduction assay 72 hours after exposure to test agents. The total length of the assay is 4 days vs. 5 for HUVEC cells because MV522 cells are not exposed to starvation medium.

[2] = biological target: T1, phosphorylated VEGF-R2Δ50 (FLVK-P) (Homo sapiens, UniProt P35968, DEL940-989/E990V); experiment: VEGF-R2 coupled spectrophotometric assay, phosphorylated construct (FLVK-P); assay type: biochemical
T1 construct: VEGF-R2Δ50 contains residues 806-939 and 990-1171; made in house; host or cells: baculovirus/insect cells
From the text: A construct (VEGF-R2Δ50) of the cytosolic domain of human vascular endothelial growth factor receptor 2 (VEGF-R2) lacking the 50 central residues of the 68 residues of the kinase insert domain was expressed in a baculovirus/insect cell system. Of the 1356 residues of full-length VEGF-R2, VEGF-R2Δ50 contains residues 806-939 and 990-1171, and also one point mutation (E990V) within the kinase insert domain relative to wild-type VEGF-R2. See commonly assigned, co-pending U.S. patent application Ser. No. 09/390,326, filed Sep. 7, 1999, incorporated by reference herein, for discussion of VEGF constructs and expression systems. Autophosphorylation of the purified construct was performed by incubation of the enzyme at a concentration of 4 μM in the presence of 3 mM ATP and 40 mM MgCl2 in 100 mM Hepes, pH 7.5, containing 5% glycerol and 5 mM DTT, at 4° C. for 2 h. […] See Parast et al., Biochemistry, 37, 16788-16801 (1998).
The production of ADP from ATP that accompanies phosphoryl transfer was coupled to oxidation of NADH using phosphoenolpyruvate (PEP) and a system having pyruvate kinase (PK) and lactic dehydrogenase (LDH). The oxidation of NADH was monitored by following the decrease of absorbance at 340 nm (e340=6.22 cm^−1 mM^−1) using a Beckman DU 650 spectrophotometer. Assay conditions for phosphorylated VEGF-R2Δ50 (indicated as FLVK-P in the tables below) were the following: 1 mM PEP; 250 μM NADH; 50 units of LDH/mL; 20 units of PK/mL; 5 mM DTT; 5.1 mM poly(E4Y1); 1 mM ATP; and 25 mM MgCl2 in 200 mM Hepes, pH 7.5. Assay conditions for unphosphorylated VEGF-R2Δ50 (indicated as FLVK in the tables) were the following: 1 mM PEP; 250 μM NADH; 50 units of LDH/mL; 20 units of PK/mL; 5 mM DTT; 20 mM poly(E4Y1); 3 mM ATP; and 60 mM MgCl2 and 2 mM MnCl2 in 200 mM Hepes, pH 7.5. Assays were initiated with 5 to 40 nM of enzyme. Ki values were determined by measuring enzyme activity in the presence of varying concentrations of test compounds. The data were analyzed using Enzyme Kinetic and Kaleidagraph software.

[3] = system: human umbilical vein endothelial cells (HUVEC); experiment: HUVEC proliferation assay (VEGF-stimulated, MTT); assay type: cell-based
Description: This assay determines the ability of a test compound to inhibit the growth factor-stimulated proliferation of human umbilical vein endothelial cells (“HUVEC”). HUVEC cells (passage 3-4, Clonetics, Corp.) were thawed into EGM2 culture medium (Clonetics Corp) in T75 flasks. Fresh EGM2 medium was added to the flasks 24 hours later. Four or five days later, cells were exposed to another culture medium (F12K medium supplemented with 10% fetal bovine serum (FBS), 60 μg/ml endothelial cell growth supplement (ECGS), and 0.1 mg/ml heparin). Exponentially-growing HUVEC cells were used in experiments thereafter. Ten to twelve thousand HUVEC cells were plated in 96-well dishes in 100 μl of rich, culture medium (described above). The cells were allowed to attach for 24 hours in this medium. The medium was then removed by aspiration and 105 μl of starvation media (F12K+1% FBS) was added to each well. After 24 hours, 15 μl of test agent dissolved in 1% DMSO in starvation medium or this vehicle alone was added into each treatment well; the final DMSO concentration was 0.1%. One hour later, 30 μl of VEGF (30 ng/ml) in starvation media was added to all wells except those containing untreated controls; the final VEGF concentration was 6 ng/ml. Cellular proliferation was quantified 72 hours later by MTT dye reduction, at which time cells were exposed for 4 hours MTT (Promega Corp.). Dye reduction was stopped by addition of a stop solution (Promega Corp.) and absorbance at 595 λ was determined on a 96-well spectrophotometer plate reader.

[4] = biological target: T2, unphosphorylated VEGF-R2Δ50 (FLVK) (Homo sapiens, UniProt P35968, DEL940-989/E990V); experiment: VEGF-R2 coupled spectrophotometric assay, unphosphorylated construct (FLVK); assay type: biochemical;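 also: Baculovirus-expressed cytosolic kinase domain, ADP formation linked via pyruvate kinase and lactate dehydrogenase to NADH oxidation, read as falling absorbance at 340 nm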
T2 construct: VEGF-R2Δ50 contains residues 806-939 and 990-1171; made in house; host or cells: baculovirus/insect cells
Description: A construct (VEGF-R2Δ50) of the cytosolic domain of human vascular endothelial growth factor receptor 2 (VEGF-R2) lacking the 50 central residues of the 68 residues of the kinase insert domain was expressed in a baculovirus/insect cell system. […] Autophosphorylation of the purified construct was performed by incubation of the enzyme at a concentration of 4 μM in the presence of 3 mM ATP and 40 mM MgCl2 in 100 mM Hepes, pH 7.5, containing 5% glycerol and 5 mM DTT, at 4° C. for 2 h.

[5] = Homo sapiens, HUVEC, read-out: HUVEC IC50

T2 sequence (P35968 with tags, fused parts or gaps DEL940-989/E990V limits assumed): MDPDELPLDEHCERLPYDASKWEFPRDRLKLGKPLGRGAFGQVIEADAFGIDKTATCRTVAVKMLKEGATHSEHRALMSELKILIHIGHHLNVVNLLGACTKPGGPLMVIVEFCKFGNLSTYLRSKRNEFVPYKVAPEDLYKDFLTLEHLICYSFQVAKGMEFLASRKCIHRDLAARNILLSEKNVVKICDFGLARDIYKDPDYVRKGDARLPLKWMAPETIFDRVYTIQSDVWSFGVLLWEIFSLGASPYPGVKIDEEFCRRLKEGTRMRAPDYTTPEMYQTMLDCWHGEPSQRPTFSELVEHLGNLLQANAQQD
T1 sequence (P35968 with tags, fused parts or gaps DEL940-989/E990V limits assumed): as above

| SMILES | IC50 ([1]; MV522) [µM] | Ki [2] [µM] | IC50 [3, 5] [µM] | Ki [4] [µM] | further results |
| --- | --- | --- | --- | --- | --- |
| Cc1c(Br)cc(NC(=O)c2cccc(CSc3cnccn3)c2)cc1Br [Example A-8, N-(3,5-Dibromo-4-methylphenyl)-3-[(pyrazin-2-yl)sulfanylmethyl]benzamide] | > 10 | 0.00336 | 0.74 | 0.0019 | – |
| N#Cc1ccc(NC(=O)c2cccc(CSc3ncnc4[nH]ncc34)c2)cc1C(F)(F)F [Example B-12, N-[4-cyano-3-(trifluoromethyl)phenyl]-3-[(1H-pyrazolo[3,4-d]pyrimidin-4-yl-sulfanyl)methyl]benzamide] | > 10 | 0.028 | 0.53 | – | – |
| CC(C)c1cccc(NC(=O)c2cccc(CSc3ncnc4[nH]ncc34)c2)c1 [Example B-15, 3-[(1H-Pyrazolo[3,4-d]pyrimidin-4-yl)sulfanylmethyl]-N(3-isopropylphenyl)-benzamide] | > 10 | 0.0157 | 0.12 | – | – |
| O=C(Nc1cc(C(F)(F)F)cc(C(F)(F)F)c1)c1cccc(CSc2ncnc3[nH]ncc23)c1 [Example B-17, 3-[(1H-Pyrazolo[3,4-d]pyrimidin-4-yl)sulfanylmethyl]-N(3,5-bis-trifluoromethylphenyl)-benzamide] | > 10 | 0.00695 | > 0.7 | – | – |
| CC(C)(C)c1cccc(NC(=O)c2cccc(CSc3ncnc4[nH]ncc34)c2)c1 [Example B-18, 3-[(1H-Pyrazolo[3,4-d]pyrimidin-4-yl)sulfanylmethyl]-N(3-t-butylpheny)-benzamide] | – | 0.00584 | – | – | IC50 [1]: > 10 µM; IC50 ([3]; read-out: HUVEC IC50): 0.13 µM |
| Cc1cc(NC(=O)c2cccc(SCc3cnccn3)c2)ccc1C(C)C [Example D-1, N-(4-Isopropyl-3-methylphenyl)-3-[(pyrazin-2-yl)methylsulfanyl]benzamide] | > 10 | 0.028 | 0.52 | – | – |
| COc1cc(/C=C/c2cc(CSc3cccc(C(=O)Nc4ccc5nc(C)ccc5c4)c3)[nH]n2)ccc1O [Example F-1, 3-[{5-((E)-2-(4-Hydroxy-3-methoxyphenyl)ethenyl)-2H-pyrazol-3-yl}methylsulfanyl]-N-(2-methylquinolin-6-yl)benzamide] | > 10 | 0.00236 | 0.71 | – | – |
| COc1cc(/C=C/c2cc(CNc3cccc(C(=O)Nc4ccc(C(C)C)c(C)c4)c3)[nH]n2)ccc1O [Example I-1, 3-[({3-[(E)-2-(4-hydroxy-3-methoxyphenyl)ethenyl]-1H-pyrazol-5-yl}methyl)amino]-N-(3-methyl-4-isopropylphenyl)benzamide] | > 10 | 0.00884 | 0.22 | – | – |
| CSc1cc(C)nc2ccc(NC(=O)c3cccc(OCc4cncc5ccccc45)c3)cc12 [Example K-4, 3-(Isoquinolin-4-yl)methoxy-N-(2-methyl-4-methylsulfanyl-quinolin-6-yl)-benzamide hydrochloride] | > 10 | 0.064 | 0.38 | – | – |
| Cc1ccc2cc(NC(=O)c3cccc(OCc4cccnc4)c3)ccc2n1 [Example K-9, N-(2-Methyl-quinolin-6-yl)-3-(pyridin-3-yl)methoxy-benzamide] | – | 0.109 | – | 0.01 | – |
| O=C(Nc1ccc2c(c1)CCCN2)c1ccc(F)c(OCc2cncc3ccccc23)c1 [Example O-1, 4-Fluoro-N-(1,2,3,4-tetrahydroquinolin-6-yl)-3-(isoquinolin-4-ylmethoxy)-benzamide bistrifluoroacetic acid salt] | < 3 | – | > 0.3 | 0.0055 | – |
| Cc1c(Br)cc(NC(=O)c2cccc(OCc3cncc4ccccc34)c2)cc1Br [Example R-2, N-(3,5-Dibromo-4-methyl-phenyl)-3-(isoquinolin-4-ylmethoxy)-benzamide] | 0.43 | 0.00253 | 0.11 | – | – |
| CC1(C)CCC(C)(C)c2cc(NC(=O)c3cccc(OCc4cncc5ccccc45)c3)ccc21 [Example R-3, 3-(Isoquinolin-4-ylmethoxy)-N-(5,5,8,8-tetramethyl-5,6,7,8-tetrahydronaphthalen-2-yl)-benzamide] | 9.7 | – | 0.05 | – | inhibition at 5 µM ([2]; @ 5 μM, read-out: FLVK-P percent inhibition): 67% |
| Cc1cc(C)c2cc(NC(=O)c3cccc(OCc4cncc5ccccc45)c3)ccc2n1 [Example R-5, N-(2,4-Dimethylquinolin-6-yl)-3-(isoquinolin-4-ylmethoxy)-benzamide] | 10 | 0.0112 | 0.089 | 0.0017 | – |
| O=C(Nc1ccc(N2CCNCC2)c(C(F)(F)F)c1)c1ccc(F)c(OCc2cnc3ccccc3c2)c1 [Example R-17, 4-Fluoro-N-(4-piperazin-1-yl-3-trifluoromethyl-phenyl)-3-(quinolin-3-ylmethoxy)-benzamide] | – | – | 0.032 | 0.0074 | – |
| O=C(Nc1ccc(N2CCNCC2)c(C(F)(F)F)c1)c1ccc(F)c(OCc2cncc(Br)c2)c1 [Example R-25, 3-(5-Bromo-pyridin-3-ylmethoxy)-4-fluoro-N-(4-piperazin-1-yl-3-trifluoromethyl-phenyl)-benzamide] | – | – | – | 0.0066 | IC50 ([3]; Homo sapiens, HUVEC, with albumin, read-out: Huvec + Albumin IC50): 0.155 µM |
| Cc1cc(NC(=O)c2cccc(CCc3cncc4ccccc34)c2)ccc1C(C)C [Example S-3, N-(4-Isopropyl-3-methyl-phenyl)-3-(2-isoquinolin-4-yl-ethyl)-benzamide] | – | 0.0087 | 0.18 | 0.00076 | – |
| Cc1cc(NC(=O)c2cc(CCc3cncc4ccccc34)c(F)cc2Cl)ccc1C(C)C [Example S-7, 2-Chloro-4-fluoro-N-(4-isopropyl-3-methyl-phenyl)-5-(2-isoquinolin-4-yl-ethyl)-benzamide] | – | – | > 0.3 | – | inhibition at 0.05 µM ([4]; @ 50 nM, read-out: FLVK percent inhibition): 19% |
| O=C(Nc1cccc(CSc2ncnc3[nH]ncc23)c1)c1cc(C(F)(F)F)cc(C(F)(F)F)c1 [Example V-2] | 10 | 0.013 | 0.18 | – | – |
| CC(C)(C)c1cc(C(=O)Nc2cccc(OCc3cncc4ccccc34)c2)ccc1O [Example X-5, 3-t-Butyl-4-hydroxy-N-[3-(isoquinolin-4-ylmethoxy)-phenyl]-benzamide] | – | – | – | – | IC50 ([1]; MV522 lung cancer cells): 3.7 µM; IC50 ([3]; Homo sapiens, VEGF-stimulated HUVEC proliferation, read-out: HUVEC IC50): 0.029 µM; Ki ([4]; unphosphorylated VEGF-R2 construct): 0.0013 µM |
